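Tested at 5 concentrations; 48 h exposure; 96-well plates; endpoints linearly interpolated, else capped at highest concentration. At the GI50, growth is halved.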 The source made the active and inactive calls. No stated cut-off is given here; in the data, active = GI50 up to about 1.1 µM and inactive = higher. Where a SMILES comes first, the peptide text is derived from it. [ ]: non-standard residue; d: D form. The star is where a group is joined. Phe(4-NO2) = N[CH](Cc1ccc([N+](=O)[O-])cc1)C(=O)O; Boc = CC(C)(C)OC(=O)*; OBn = c1ccc(CO*)cc1
Assays:
Assay in all cases: DTP human tumour cell line panel, 48 h
A498 = test system: A498
A549 = test system: A549
ACHN = test system: ACHN
BT-549 = test system: BT-549
CCRF-CEM = test system: CCRF-CEM
COLO 205 = test system: COLO 205
EKVX = test system: EKVX
HL-60 = test system: HL-60
M14 = test system: M14
MDA-MB-231 = test system: MDA-MB-231
MDA-N = test system: MDA-N
NCI-H460 = test system: NCI-H460
NCI/ADR-RES = test system: NCI/ADR-RES
OVCAR-4 = test system: OVCAR-4
RPMI-8226 = test system: RPMI-8226
SF-539 = test system: SF-539
SK-OV-3 = test system: SK-OV-3
SR = test system: SR
SW-620 = test system: SW-620
U-251 = test system: U-251

Compound	GI50 (A498)	GI50 (A549)	GI50 (ACHN)	GI50 (BT-549)	GI50 (CCRF-CEM)	GI50 (COLO 205)	GI50 (EKVX)	GI50 (HL-60)	GI50 (M14)	GI50 (MDA-MB-231)	GI50 (MDA-N)	GI50 (NCI-H460)	GI50 (NCI/ADR-RES)	GI50 (OVCAR-4)	GI50 (RPMI-8226)	GI50 (SF-539)	GI50 (SK-OV-3)	GI50 (SR)	GI50 (SW-620)	GI50 (U-251)
CC1(C)N=C(N)N=C(N)N1c1ccc(CCCCc2ccc(Cl)cc2Cl)cc1	12.8 µM (inactive)	0.335 µM (active)	4.57 µM (inactive)	1.85 µM (inactive)	0.736 µM (active)	0.927 µM (active)	15.1 µM (inactive)	0.461 µM (active)	0.914 µM (active)	2.07 µM (inactive)	0.982 µM (active)	0.0165 µM (active)	93.5 µM (inactive)	0.542 µM (active)	1.17 µM (inactive)	0.929 µM (active)	0.746 µM (active)	0.735 µM (active)	0.356 µM (active)	0.245 µM (active)
COC(=O)CCC(NC(=O)OC(C)(C)C)C(=O)NC(Cc1ccc([N+](=O)[O-])cc1)C(=O)NCC(=O)OCc1ccccc1 (stereo not drawn) (Boc-Glu(OMe)-[Phe(4-NO2)]-Gly-OBn; configuration not given here)	> 100 µM (inactive)	> 100 µM (inactive)	> 100 µM (inactive)	20.4 µM (inactive)	99.3 µM (inactive)	38.7 µM (inactive)	> 60.8 µM (inactive)	> 74.1 µM (inactive)	> 100 µM (inactive)	> 60 µM (inactive)	> 100 µM (inactive)	> 100 µM (inactive)	> 80.7 µM (inactive)	> 92.3 µM (inactive)	> 100 µM (inactive)	28.4 µM (inactive)	> 82.2 µM (inactive)	> 53.8 µM (inactive)	> 100 µM (inactive)	55.3 µM (inactive)
CC1=NN(c2nc(N)nc(CCl)n2)C(C)(C)C1	30.6 µM (inactive)	42.6 µM (inactive)	10.3 µM (inactive)	26.7 µM (inactive)	8.15 µM (inactive)	22.9 µM (inactive)	12.9 µM (inactive)	4.69 µM (inactive)	30.7 µM (inactive)	29.3 µM (inactive)	31.5 µM (inactive)	17.2 µM (inactive)	14.4 µM (inactive)	8.63 µM (inactive)	25.6 µM (inactive)	18.9 µM (inactive)	> 56 µM (inactive)	15.8 µM (inactive)	25.6 µM (inactive)	25.4 µM (inactive)
Nc1ncnc2c1ncn2CCCNO	> 100 µM (inactive)	> 100 µM (inactive)	> 100 µM (inactive)	> 100 µM (inactive)	> 100 µM (inactive)	> 100 µM (inactive)	> 100 µM (inactive)	> 100 µM (inactive)	> 100 µM (inactive)	> 100 µM (inactive)	> 100 µM (inactive)	> 100 µM (inactive)	> 100 µM (inactive)	> 100 µM (inactive)	> 100 µM (inactive)	> 100 µM (inactive)	> 100 µM (inactive)	> 100 µM (inactive)	> 100 µM (inactive)	> 100 µM (inactive)
O=C(Nc1ccc(Cl)c(Cl)c1)N1N=C2c3ccccc3CCC2C1c1ccc(Cl)cc1 (stereo not drawn)	> 100 µM (inactive)	> 100 µM (inactive)	> 100 µM (inactive)	> 100 µM (inactive)	> 100 µM (inactive)	> 100 µM (inactive)	> 100 µM (inactive)	> 100 µM (inactive)	> 100 µM (inactive)	> 100 µM (inactive)	> 100 µM (inactive)	> 100 µM (inactive)	> 100 µM (inactive)	> 100 µM (inactive)	> 100 µM (inactive)	> 100 µM (inactive)	> 100 µM (inactive)	> 100 µM (inactive)	> 100 µM (inactive)	> 100 µM (inactive)
N#CC(C#N)=NNc1ccc2cn[nH]c2c1	> 100 µM (inactive)	> 100 µM (inactive)	33.1 µM (inactive)	> 100 µM (inactive)	13.6 µM (inactive)	25.6 µM (inactive)	47.3 µM (inactive)	18.6 µM (inactive)	35.6 µM (inactive)	> 100 µM (inactive)	43.9 µM (inactive)	57.3 µM (inactive)	> 100 µM (inactive)	30.7 µM (inactive)	26.2 µM (inactive)	70.8 µM (inactive)	> 100 µM (inactive)	22.6 µM (inactive)	41.1 µM (inactive)	> 100 µM (inactive)
O=C1/C(=C\c2cccc(Oc3ccccc3)c2)SC(c2ccccc2)N1c1ccc(Cl)cc1 (stereo not drawn)	> 95.9 µM (inactive)	> 40.6 µM (inactive)	20.2 µM (inactive)	28.2 µM (inactive)	5.89 µM (inactive)	11.2 µM (inactive)	80.7 µM (inactive)	10.1 µM (inactive)	3.17 µM (inactive)	> 64.6 µM (inactive)	4.79 µM (inactive)	24.5 µM (inactive)	21.4 µM (inactive)	17.4 µM (inactive)	5.78 µM (inactive)	21.3 µM (inactive)	14.1 µM (inactive)	3.91 µM (inactive)	27.7 µM (inactive)	50.5 µM (inactive)
COC(=O)c1c(C)nc(C)c(N=O)c1-c1ccccc1C(F)(F)F	> 100 µM (inactive)	> 100 µM (inactive)	32.9 µM (inactive)	18.5 µM (inactive)	6 µM (inactive)	31.9 µM (inactive)	99.8 µM (inactive)	8 µM (inactive)	20 µM (inactive)	18 µM (inactive)	19.7 µM (inactive)	80.4 µM (inactive)	20.6 µM (inactive)	16.1 µM (inactive)	73.8 µM (inactive)	20.7 µM (inactive)	> 100 µM (inactive)	13.7 µM (inactive)	15.5 µM (inactive)	17.5 µM (inactive)
CCOC(=O)c1oc2ccc([N+](=O)[O-])c3c2c1CCC3	32.7 µM (inactive)	> 100 µM (inactive)	58.3 µM (inactive)	46.5 µM (inactive)	> 95.1 µM (inactive)	> 85.1 µM (inactive)	73.6 µM (inactive)	> 93.8 µM (inactive)	> 86.3 µM (inactive)	36.5 µM (inactive)	> 100 µM (inactive)	> 100 µM (inactive)	64.9 µM (inactive)	> 100 µM (inactive)	> 100 µM (inactive)	19 µM (inactive)	9.89 µM (inactive)	> 100 µM (inactive)	> 90.8 µM (inactive)	29.9 µM (inactive)
Cn1nc2c(c1N)Cc1c(nn(C)c1N)-c1ccccc1-2	20.2 µM (inactive)	> 100 µM (inactive)	> 100 µM (inactive)	> 100 µM (inactive)	> 100 µM (inactive)	> 100 µM (inactive)	> 100 µM (inactive)	> 100 µM (inactive)	> 100 µM (inactive)	> 100 µM (inactive)	> 100 µM (inactive)	> 100 µM (inactive)	> 100 µM (inactive)	> 100 µM (inactive)	> 100 µM (inactive)	> 100 µM (inactive)	> 100 µM (inactive)	> 100 µM (inactive)	> 100 µM (inactive)	> 100 µM (inactive)
Cc1occc1C(=S)Nc1ccc(Cl)c(C(=O)OC(C)C2CC2)c1 (stereo not drawn)	22.3 µM (inactive)	35.2 µM (inactive)	17.3 µM (inactive)	22.5 µM (inactive)	50.1 µM (inactive)	20.1 µM (inactive)	19.1 µM (inactive)	24.2 µM (inactive)	24.9 µM (inactive)	17.4 µM (inactive)	18.6 µM (inactive)	35.7 µM (inactive)	19.3 µM (inactive)	15.3 µM (inactive)	24.8 µM (inactive)	22.3 µM (inactive)	21.6 µM (inactive)	18.3 µM (inactive)	35.8 µM (inactive)	23.9 µM (inactive)
Cn1c(=O)n2c(=O)n(C)c(=O)n2c1=O	> 100 µM (inactive)	> 100 µM (inactive)	–	> 100 µM (inactive)	> 100 µM (inactive)	> 100 µM (inactive)	> 100 µM (inactive)	> 100 µM (inactive)	> 100 µM (inactive)	> 100 µM (inactive)	> 100 µM (inactive)	> 100 µM (inactive)	> 100 µM (inactive)	> 100 µM (inactive)	> 100 µM (inactive)	> 100 µM (inactive)	> 100 µM (inactive)	> 100 µM (inactive)	> 100 µM (inactive)	> 100 µM (inactive)
COc1ccc(-c2nc3ccc(C)cc3o2)c(OC)c1	18.6 µM (inactive)	4.76 µM (inactive)	33 µM (inactive)	23.7 µM (inactive)	24.1 µM (inactive)	20.7 µM (inactive)	19.6 µM (inactive)	20.4 µM (inactive)	18.2 µM (inactive)	19.8 µM (inactive)	23.9 µM (inactive)	2.93 µM (inactive)	29.4 µM (inactive)	26.9 µM (inactive)	19.5 µM (inactive)	20 µM (inactive)	41.5 µM (inactive)	14.3 µM (inactive)	29.3 µM (inactive)	1.63 µM (inactive)
COc1cc(C2SCC(=O)N2c2ccc(Cl)c(Cl)c2)cc(OC)c1OC (stereo not drawn)	> 100 µM (inactive)	> 78.7 µM (inactive)	–	44.7 µM (inactive)	14.8 µM (inactive)	34.3 µM (inactive)	25.5 µM (inactive)	19.5 µM (inactive)	11.2 µM (inactive)	> 64.4 µM (inactive)	13 µM (inactive)	30.2 µM (inactive)	37.2 µM (inactive)	27.4 µM (inactive)	31.8 µM (inactive)	70.5 µM (inactive)	99.3 µM (inactive)	9.75 µM (inactive)	48 µM (inactive)	47.3 µM (inactive)
